Key:
[1] = Activity on Electroconvulsive Shock-induced Amnesia (step-through passive avoidance, light-and-dark box); type: in vivo, mouse (dd strain, male); settings: for reaction latent time: Tables 2-2, 2-3 and 2-4, oral
Description: The antiamnestic activity was measured by using the light-and-dark box method. Symbols of the test compounds correspond to said compounds (Table 1).
As the test animals, 14 to 15 dd strain male mice (body weight: 23-28 g) were used for each group. As the experimental device, a step-through type passive avoidance training box composed of a light room and a dark room (light room: 130×90×90 mm; dark room 180×90×90 mm) was used.
In the acquisition trial where learning takes place, mice put in the light room move to the dark room. Each time the mice entered the dark room, electric stimulation of 0.25 mA was given to four limbs of each mouse for 2 seconds from grids on the floor.
Amnesia-inducing treatment was performed by electroconvulsive shock (2,000 V, 25 mA, 0.2 seconds) immediately after completion of the acquisition trial. After 24 hours, the test trial was conducted to measure the length of time before the mice entered the dark room. This time period, termed the reaction latent time, was recorded. A reaction latent time longer than 600 seconds was recorded as 600 seconds.
A test compound was suspended in 0.3% sodium carboxymethyl cellulose (hereinafter referred to as "CMC"). That suspension and a control of 0.3% CMC without any test compound were respectively administered to the mice 60 minutes prior to each test trial.
The effect was evaluated by Student-t test to determine whether there was a significant difference in reaction latent time between the amnesia control group and the group administered with the test compound in the passive avoidance test trial.

Acute Toxicity, rats = settings: in vivo; oral, rat (male)
Description: (§1) Acute toxicity test was carried out by orally administering Compound (I) used in the present invention to mice (male) and rats (male).

Acute Toxicity, mice = settings: in vivo; oral, mouse (male)
Description: as §1

[2] = Activity on Amnesia due to Damage of Basal Forebrain (kainic acid lesion, passive avoidance); type: in vivo, rat (Wistar strain, male); settings: for Number of Rats that Reached Standard Point / Number of Rats Tested: standard point 600 seconds
Description: As the test animals, 13 to 39 Wistar strain male rats (body weight: 250-300 g) were used for each group. Amnesia-inducing treatment was effected by damaging the basal forebrain through injection of 0.2 μg/μl kainic acid at the basal forebrain from both sides under anesthesia with pentobarbital-Na.
After the recovery period of about 10 days following the operation, the trial for acquiring learning (training) was performed in a similar manner using the same experimental device as in Experiment 2. After 24 hours, the test trial was carried out.
Measurement of the latent time was carried out in a similar manner as in Experiment 1. Test Compound B and idebenone were suspended in 0.3% CMC, and the suspension was administered twice 60 minutes prior to the training and 60 minutes prior to the test.
Alternatively, the suspension was administered for 9 consecutive days after the recovery period. In this case, Compound B was orally administered and idebenone was intraperiotoneally administered; and the training was conducted on day 8 and the test trial was conducted on day 9. […]

[3] = Activity on Scopolamine-induced Amnesia (step-through passive avoidance); type: in vivo, rat (Wistar strain, male); settings: for Number of Rats that Reached Standard Point / Number of Rats Tested: standard point 600 seconds
From the text: As the experimental device, a step-through type passive avoidance training box composed of a light room and a dark room (light room: 400×400×400 mm; dark room 200×150×200 mm) was used. In the acquisition trial where learning is made, rats put in the light room move to the dark room. Each time the rats entered the dark room, electric stimulation of 2 mA was given to four limbs of each rat for 3 seconds from grids on the floor.

[4] = 2.5 mg/kg, administered for 9 days, oral
[5] = 10 mg/kg, administered for 9 days, oral
[6] = 2.5 mg/kg, administered for 9 days, intraperitoneal
[7] = 10 mg/kg, administered for 9 days, intraperitoneal
[8] = idebenone intraperitoneal, imipramine oral

## CN(C)CCC=C1c2ccccc2CCc2ccccc21 [Amitriptyline, amitriptyline, reference compound]
[1]; mouse, in vivo, po
  ataxis in motor coordination, order of intensity: amitriptyline>desipramine>imipramine

## CC(=O)Nc1ccc(Cc2ccccn2)c([N+](=O)[O-])c1 [Compound A, α-(p-Acetylamino-o-nitrobenzyl)pyridine]
Acute Toxicity, rats
  LD50: > 200 mg/kg
[1]
  reaction latent time: prolonged
Acute Toxicity, mice
  LD50: 660 mg/kg

## CCCC(=O)Nc1ccc(Cc2ccccn2)c([N+](=O)[O-])c1 [Compound B, α-(p-Butyrylamino-o-nitrobenzyl)pyridine]
Acute Toxicity, rats
  LD50: > 850 mg/kg
[2]; [4]
  Test Trial Mean Reaction Latent Time: 243.2 ± 73.7 s
  Number of Rats that Reached Standard Point / Number of Rats Tested: 4/13
[2]; 2.5 mg/kg, administered twice
  Test Trial Mean Reaction Latent Time: 121.8 ± 36.5 s
  Number of Rats that Reached Standard Point / Number of Rats Tested: 1/19
[2]; 5 mg/kg, administered twice
  Test Trial Mean Reaction Latent Time: 215.5 ± 60.0 s
  Number of Rats that Reached Standard Point / Number of Rats Tested: 5/19
[2]; [5]
  Test Trial Mean Reaction Latent Time: 259.0 ± 78.5 s
  Number of Rats that Reached Standard Point / Number of Rats Tested: 5/13
[2]; 10 mg/kg, administered twice
  Test Trial Mean Reaction Latent Time: 191.2 ± 57.7 s
  Number of Rats that Reached Standard Point / Number of Rats Tested: 3/18
[2]; 20 mg/kg, administered twice
  Test Trial Mean Reaction Latent Time: 209.2 ± 60.2 s
  Number of Rats that Reached Standard Point / Number of Rats Tested: 4/18
[2]; 40 mg/kg, administered twice
  Test Trial Mean Reaction Latent Time: 163.0 ± 51.5 s
  Number of Rats that Reached Standard Point / Number of Rats Tested: 2/18
[2]; 9 consecutive days, 10 mg/kg, oral
  improving activity: significant (P<0.05) improving activity
[2]; administered twice, 2.5 mg/kg or more
  activity of alleviating learning disturbance: showed an activity of alleviating learning disturbance
[2]; rat, in vivo
  improving activity in the learning-disturbed animal model: apparent improving activity
[3]; 2.5 mg/kg, oral
  Test Trial Mean Reaction Latent Time: 94.3 ± 30.3 s
  Number of Rats that Reached Standard Point / Number of Rats Tested: 1/20
[3]; 5 mg/kg, oral
  Test Trial Mean Reaction Latent Time: 148.9 ± 54.3 s
  Number of Rats that Reached Standard Point / Number of Rats Tested: 3/17
[3]; 10 mg/kg, oral
  Test Trial Mean Reaction Latent Time: 201.2 ± 55.5 s
  Number of Rats that Reached Standard Point / Number of Rats Tested: 4/20
[3]; 20 mg/kg, oral
  Test Trial Mean Reaction Latent Time: 172.4 ± 52.6 s
  Number of Rats that Reached Standard Point / Number of Rats Tested: 2/17
[3]; 40 mg/kg, oral
  Test Trial Mean Reaction Latent Time: 171.2 ± 52.5 s
  Number of Rats that Reached Standard Point / Number of Rats Tested: 4/20
[3]; oral, dose of 5 to 40 mg/kg
  antiamnestic activity: showed an antiamnestic activity
[1]; doses of 10, 40, 80 and 160 mg/kg, oral
  reaction latent time compared with the amnestic control group: significantly prolonged
Acute Toxicity, mice
  LD50: 1530 mg/kg

## CCCCC(=O)Nc1ccc(Cc2ccccn2)c([N+](=O)[O-])c1 [Compound C, α-(p-Valerylamino-o-nitrobenzyl)pyridine]
[1]
  reaction latent time: prolonged
Acute Toxicity, mice
  LD50: > 300 mg/kg

## CCCCCC(=O)Nc1ccc(Cc2ccccn2)c([N+](=O)[O-])c1 [Compound D, α-(p-Hexanoylamino-o-nitrobenzyl)pyridine]
Acute Toxicity, rats
  LD50: > 100 mg/kg
[1]
  reaction latent time: prolonged
Acute Toxicity, mice
  LD50: > 1000 mg/kg

## CCCCCCCC(=O)Nc1ccc(Cc2ccccn2)c([N+](=O)[O-])c1 [Compound E, α-(p-Octanoylamino-o-nitrobenzyl)pyridine]
Acute Toxicity, rats
  LD50: > 100 mg/kg
Acute Toxicity, mice
  LD50: > 1000 mg/kg

## CCCCCCCCCC(=O)Nc1ccc(Cc2ccccn2)c([N+](=O)[O-])c1 [Compound F, α-(p-Decanoylamino-o-nitrobenzyl)pyridine]
Acute Toxicity, rats
  LD50: > 100 mg/kg
Acute Toxicity, mice
  LD50: > 1000 mg/kg

## CCCCCCCCCCCCCC(=O)Nc1ccc(Cc2ccccn2)c([N+](=O)[O-])c1 [Compound G, α-(p-Myristylamino-o-nitrobenzyl)pyridine]
Acute Toxicity, rats
  LD50: > 100 mg/kg
[1]
  reaction latent time: prolonged
Acute Toxicity, mice
  LD50: > 1000 mg/kg

## CNCCCN1c2ccccc2CCc2ccccc21 [Desipramine, desipramine, reference compound]
[1]; Table 2-6, oral
  ataxis in motor coordination, order of intensity: amitriptyline>desipramine>imipramine

## COC1=C(OC)C(=O)C(CCCCCCCCCCO)=C(C)C1=O [Idebenone, idebenone, reference compound]
[2]; [6]
  Test Trial Mean Reaction Latent Time: 382.8 ± 80.2 s
  Number of Rats that Reached Standard Point / Number of Rats Tested: 7/13
[2]; [7]
  Test Trial Mean Reaction Latent Time: 178.2 ± 68.2 s
  Number of Rats that Reached Standard Point / Number of Rats Tested: 3/13
[2]; 10 mg/kg, administered twice
  Test Trial Mean Reaction Latent Time: 52.0 ± 22.1 s
  Number of Rats that Reached Standard Point / Number of Rats Tested: 0/14
[2]; 20 mg/kg, administered twice
  Test Trial Mean Reaction Latent Time: 15.2 ± 3.4 s
  Number of Rats that Reached Standard Point / Number of Rats Tested: 0/14
[2]; 40 mg/kg, administered twice
  Test Trial Mean Reaction Latent Time: 27.7 ± 8.9 s
  Number of Rats that Reached Standard Point / Number of Rats Tested: 0/14
[2]; 9 consecutive days, 2.5 mg/kg, intraperitoneal
  improving effect: apparent improving effect
[2]; administered twice, 10 to 40 mg/kg
  improving effect: showed no improving effect
[3]; 2.5 mg/kg, intraperitoneal
  Test Trial Mean Reaction Latent Time: 58.4 ± 19.7 s
  Number of Rats that Reached Standard Point / Number of Rats Tested: 0/10
[3]; 5 mg/kg, intraperitoneal
  Test Trial Mean Reaction Latent Time: 110.6 ± 30.2 s
  Number of Rats that Reached Standard Point / Number of Rats Tested: 0/10
[3]; 10 mg/kg, intraperitoneal
  Test Trial Mean Reaction Latent Time: 148.8 ± 60.2 s
  Number of Rats that Reached Standard Point / Number of Rats Tested: 0/10
[3]; [8]
  antiamnestic activity: showed no antiamnestic activity

## CN(C)CCCN1c2ccccc2CCc2ccccc21 [Imipramine, imipramine]
[3]; 20 mg/kg, oral
  Test Trial Mean Reaction Latent Time: 110.4 ± 44.3 s
  Number of Rats that Reached Standard Point / Number of Rats Tested: 1/13
[3]; 40 mg/kg, oral
  Test Trial Mean Reaction Latent Time: 186.6 ± 54.0 s
  Number of Rats that Reached Standard Point / Number of Rats Tested: 1/13
[3]; [8]
  antiamnestic activity: showed no antiamnestic activity
[1]; Table 2-6, oral
  ataxis in motor coordination, order of intensity: amitriptyline>desipramine>imipramine

— US4851414A, “Anti-dementia agent” (Kyowa Hakko Kagyo Co., Ltd., priority 1987, dated 1989)
